According to patent publication US10300058B2, “Tyrosine kinase inhibitor and uses thereof” (Xuanzhu Pharma Co., Ltd., priority 2014, dated 2019):
Where two headings read alike, the source gives them in different places.

Columns and labels:
[1] = test system: H1975 human non-small cell lung cancer xenograft; test: Pharmacodynamics in vivo, H1975 xenograft tumor-bearing nude mice; set-up: species or system BALB/c nude mouse; conditions: PO; for RTV (relative tumor volume) / TV (tumor volume) / Body weight After administration / Body weight Before administration: mean ± standard error
Text: Genus: Rodent, Line: BALB/c nude, age: 6-8 weeks, gender: female, body weight: 18-22 g. Provider of experimental animals: Beijing Ankaiyibo Biological Technology Co. Ltd., Production license No. SCXK(Jing) 2012-0009. Quality Certificate No. 11402400000256 […] The tumor cells in logarithmic growth phase were used in tumor inoculation in vivo. […] When the tumor grew into a volume of about 100 mm^3, the animals were grouped and administered, 8 mice per group. […] Test compound solutions were prepared immediately before administration every day. [table] Vernier caliper was used to measure the volume of tumor twice a week. The long diameter and short diameter of tumor were measured. The volume was calculated by the formula: volume=0.5×long diameter×short diameter^2. According to the measurement results, relative tumor volume (RTV) and relative tumor volume increasing rate (T/C) were calculated. RTV=Vt/V0, wherein Vt is the average value of tumor volume on day t after grouping and administration, V0 is the average value of tumor volume at the day when grouping. T/C=TRTV/CRTV×100%, wherein TRTV is the RTV in the treatment group, and CRTV is the RTV in the solvent control group. […] One-Way ANOVA test was carried out by SPSS17.0 statistic software. Tumor volume was analysed in statistics among groups. P<0.05 is indicative of significant difference.

[2] = Pharmacokinetics in nude mouse; assay type: in vivo; conditions: female, BALB/c nude, plasma; for bioavailability: read-out: F (absolute bioavailability)
Method: Test animal: female nude mouse (BALB/c), weight: 20-25 g/mouse.
Solvent for intraveneous injection (iv): 5% DMSO+10% PEG400+85% (28% HP-β-CD)
Solvent for intragastric administration (po): 2% HPC+0.1% Tween 80
0.1283 mL and 0.1059 mL 1M hydrochloric acid solution were separately added to adjust pH to 4.
Compound 2, 27: Compound 27 (3.18 mg) and Compound 2 (3.17 mg) were weighed, respectively, and solvent for intraveneous injection was added to prepare a clear and transparent solution at a theoretical concentration of 1.0 mg/mL.
After homogeneous dispersion, a suspension at a theoretical concentration of 1.0 mg/mL was obtained.
Collection time point: 0.083 h, 0.25 h, 0.5 h, 1 h, 2 h, 4 h, 6 h, 8 h after administration.
60 μL whole blood was collected from intraocular canthus at each time point, and was centrifuged at 8000 r/min for 6 min in a low-temperature centrifuge to separate plasma; the plasma was stored in a refrigerator at −80° C.
The plasma sample of Compound 2 was analyzed by means of protein precipitation: 10 μL plasma was transferred to a 1.5 mL EP tube, 10 μL blank plasma was added, and the mixture was mixed homogeneously under vortexing. 200 μL internal standard (acetonitrile solution containing 25 ng/mL CNX-2006) was added; the resultant mixture was vortexted for 3 min, and then centrifuged at 12000 rpm for 5 min; 150 μL supernatant was accurately taken, to which 50 μL purified water was added. The resultant mixture was vortexed for 3 min and analyzed by LC-MS/MS.

[3] = Table 17, 100 mg/kg, 19 days after inoculation
[4] = Table 18, 10 mg/kg, QD × 18, 23 days after inoculation
[5] = Table 18, 30 mg/kg, QD × 18, 23 days after inoculation
[6] = po, 7.6 mg/kg, solid dispersed sample in pH 4.0 buffer

In the case of `C=CC(=O)Nc1cccc(Nc2nc(Nc3ccc(N4CCC(N5CCOCC5)CC4)cc3OC)ncc2C(F)(F)F)c1` [Compound 28, N-(3-((2-((2-methoxy-4-(4-morpholinopiperidin-1-yl)phenyl)amino)-5-(trifluoromethyl)pyrimidin-4-yl)amino)phenyl)acrylamide], the “T/C (relative tumor volume increasing rate)” value ([1]; Table 17, 100 mg/kg) is reported as 4.7%, the “TGI (tumor growth-inhibiting rate)” value ([1]; Table 17, 100 mg/kg) is reported as 95.3% and the “RTV (relative tumor volume)” value [1, 3] is reported as 46 ± 6%. For the same molecule, the “TV (tumor volume)” value [1, 3] was 53 ± 7 mm^3, the “Body weight After administration” value ([1]; Table 17, 100 mg/kg) was 21.5 ± 0.3 g and the “Body weight Before administration” value ([1]; Table 17, 100 mg/kg) was 20.8 ± 0.4 g.

`C=CC(=O)Nc1cccc(Nc2nc(Nc3ccc(C4CCN(C(C)=O)CC4)cc3OC)ncc2C(F)(F)F)c1` [Compound 2, N-(3-((2-((4-(1-acetylpiperidin-4-yl)-2-methoxyphenyl)amino)-5-(trifluoromethyl)pyrimidin-4-yl)amino)phenyl)acrylamide] gave an AUC(0-t) ([2]; iv, 5 mg/kg) of 6300 ng·h/mL, a clearance ([2]; iv, 5 mg/kg) of 13.2 mL/min/kg and an AUC(0-t) ([2]; po, 10 mg/kg) of 5660 ng·h/mL. For the same molecule, the bioavailability ([2]; po, 10 mg/kg) was 48%, the “T/C (relative tumor volume increasing rate)” value ([1]; Table 18, 10 mg/kg, QD × 18) was 56.1% and the “TGI (tumor growth-inhibiting rate)” value ([1]; Table 18, 10 mg/kg, QD × 18) was 43.9%. The “RTV (relative tumor volume)” value [1, 4] was 630 ± 105%, the “TV (tumor volume)” value [1, 4] was 588 ± 81 mm^3 and the “Body weight After administration” value ([1]; Table 18, 10 mg/kg, QD × 18) was 22.6 ± 0.3 g. For the same molecule, the “Body weight Before administration” value ([1]; Table 18, 10 mg/kg, QD × 18) was 21.1 ± 0.4 g, the “T/C (relative tumor volume increasing rate)” value ([1]; Table 18, 30 mg/kg, QD × 18) was 45.7% and the “TGI (tumor growth-inhibiting rate)” value ([1]; Table 18, 30 mg/kg, QD × 18) was 54.3%. For the same molecule, the “RTV (relative tumor volume)” value [1, 5] was 513 ± 54%, the “TV (tumor volume)” value [1, 5] was 489 ± 49 mm^3 and the “Body weight After administration” value ([1]; Table 18, 30 mg/kg, QD × 18) was 22.6 ± 0.5 g. The “Body weight Before administration” value ([1]; Table 18, 30 mg/kg, QD × 18) was 21.6 ± 0.4 g.

`C=CC(=O)Nc1cccc(Nc2nc(Nc3ccc(C4CCN(S(C)(=O)=O)CC4)cc3OC)ncc2C(F)(F)F)c1` [Compound 27, N-(3-((2-((2-methoxy-4-(1-(methylsulfonyl)piperidin-4-yl)phenyl)amino)-5-(trifluoromethyl)pyrimidin-4-yl)amino)phenyl)acrylamide] showed an AUC(0-t) ([2]; iv, 5 mg/kg) of 11600 ng·h/mL, a clearance ([2]; iv, 5 mg/kg) of 7.17 mL/min/kg and an AUC(0-t) [2, 6] of 9790 ng·h/mL. For the same molecule, the bioavailability [2, 6] was 56%.
